Assay results published in article PMC6316600, “Analgesic Activity of Acid-Sensing Ion Channel 3 (ASIС3) Inhibitors: Sea Anemones Peptides Ugr9-1 and APETx2 versus Low Molecular Weight Compounds” (Marine Drugs, 2018).
Bridge positions count the residues as written; N and C are the ends. Peptide text beside a SMILES is read from it.

Key:
[1] = tested on: mice; assay: Open field test; format: in vivo, CD-1 mice; conditions: 1 mg/kg intramuscular, 4 h before; n = 6–7
Method: An open field test was carried out on mice to estimate the possible sedative effects of compounds administration. No statistically significant changes were detected between ASIC3 antagonist-treated groups and the control animals group in 5-min observations of 12 parameters.
Figure 2 Open field experiments on mice. Administration of compounds at a 1 mg/kg dose intramuscularly was done 4 h before of the measurements. (A) Travelling distance and (B) locomotion activity presented as mean ± SEM for 5-min recording period (n = 6–7).
Adult male CD-1 mice (Animal Breeding Facility Branch of Shemyakin-Ovchinnikov Institute of Bioorganic Chemistry, Russian Academy of Sciences, Pushchino, Russia) weighing 20–25 g were used. Animals that originally passed clinical examination that confirmed no deviations in health were divided into groups (at least eight male mice per group) using the principle of randomization. The average body weight of animals in each group was not statistically different between groups. Animals were housed at room temperature (23 ± 2 °C) and subjected to a 12-h light-dark cycle with food and water available ad libitum. All experiments were performed after receiving approval from the Animal Care and Use Committee of the Branch of the Institute of Bioorganic Chemistry, Russian Academy of Sciences (IBCh RAS) (Pushchino, Russia Federation). The samples were administered intramuscularly 2 h before testing (4 h in the open field test). The initial dose of 1 mg/kg was investigated for all samples, which was further reduced 5, 50, and 500 times for peptides.
In the locomotion measurements, exploration and anxiety were evaluated in the motor activity test on a computerized TSE Multi Conditioning System (TSE Systems GmbH, Bad Homburg, Germany). Four hours after the administration of the sample, the measurement was made, which lasted for 3 min. […]
The data significance in animal tests was determined by an analysis of variance followed by a Tukey’s test. […]

[2] = tested on: CFA-induced thermal hyperalgesia; conditions: cited from earlier work
Method: An inhibition of ASIC3 was reported to be an attractive approach to producing analgesia. […] Other nonspecific substances can also influence ASIC3 activity. […] Several ligands with inhibitory properties were found for this receptor, each of which was able to induce analgesia in animal tests. The most well-known inhibitor APETx2 in various studies has been tested on models of acid-induced muscle pain model, CFA-induced inflammatory pain model (at doses of 0.07, 0.22 and 2.2 µM). Ugr9-1 was studied in models of CFA-induced thermal hyperalgesia and acetic acid writhing test (at doses of 0.5, 0.1, and 0.01 mg/kg). […] The nonspecific actions on other cellular targets and the changes of ASIC3 involvement in the inflammatory process induced by the high antagonists’ concentration for 2 h are suspected. We conclude that the inhibition of both components of ASIC3 currents could be beneficial but could be reversed by hormesis in high doses and during a long exposure to ...

[3] = tested on: animal models of pain; conditions: cited from earlier work
[4] = cited from earlier work
From the text: Several explanations could be proposed. First, the result of partial ASIC1a inhibition is unpredictable. Second, better bioavailability of sevanol compared with Ugr9-1 can enhance the effect. Peptides from sea anemones have rather shor ...

[5] = tested on: ASIC1a; conditions: cited from earlier work
From the text: An inhibition of ASIC3 was reported to be an attractive approach to producing analgesia. […] Other nonspecific substances can also influence ASIC3 activity.

Structure (SMILES) | Travelled distance, time spent freezing, distance in the central area versus control [1] | Dose dependence, CFA thermal hyperalgesia test ([2]; intravenous, 30 min before testing) | Analgesic effect ([3]; 0.1–0.5 mg/kg) | Effect on CFA-induced thermal hyperalgesia ([2]; 100 mg/kg i.p.) | Circulating half-life [4] | Time of final elimination from the blood flow [4] [h] | Analgesic and anti-inflammatory effect ([3]; mice, 1–10 mg/kg) | Inhibition of ASIC1a [5]
CC[C@H](C)[C@H](N)C(=O)N[C@@H](CO)C(=O)N[C@H](C(=O)N[C@@H](CC(=O)O)C(=O)N1CCC[C@H]1C(=O)N1CCC[C@H]1C(=O)N[C@H]1CSSC[C@@H](C(=O)NCC(=O)N[C@@H](C)C(=O)N[C@H](C(=O)O)C(C)C)NC(=O)CNC(=O)[C@H](Cc2ccc(O)cc2)NC(=O)[C@H](C)NC(=O)[C@H](CC(=O)O)NC(=O)[C@H](Cc2ccc(O)cc2)NC(=O)[C@H](C(C)C)NC(=O)[C@@H]2CSSC[C@H](NC(=O)[C@H](Cc3ccccc3)NC(=O)[C@H](CCCNC(=N)N)NC1=O)C(=O)N[C@@H](Cc1ccc(O)cc1)C(=O)N[C@@H](Cc1c[nH]cn1)C(=O)N[C@@H](CCCNC(=N)N)C(=O)N[C@@H](CC(=O)O)C(=O)NCC(=O)N[C@@H](CO)C(=O)NCC(=O)N[C@@H](CC(N)=O)C(=O)N2)[C@@H](C)CC [Ugr9-1] (H-ISIDPPCRFCYHRDGSGNCVYDAYGCGAV-OH; disulfide 7-26, 10-19; N-terminus and C-terminus assumed) | each of these differences was nonsignificant | clearly dose-dependent | significant analgesic effect | – | – | – | – | –
O=C(O)Cc1ccccc1Nc1c(Cl)cccc1Cl [diclofenac, reference compound] | – | – | – | significantly reduced CFA-induced thermal hyperalgesia | about 2 h | 10 | – | –
O=C(O)C[C@H](C(=O)O)[C@@H](OC(=O)C1=Cc2cc(O)c(O)cc2[C@@H](c2ccc(O)c(O)c2)[C@@H]1C(=O)O[C@@H](C(=O)O)[C@H](CC(=O)O)C(=O)O)C(=O)O [sevanol] | each of these differences was nonsignificant | – | – | – | – | – | pronounced analgesic and anti-inflammatory activity | able to inhibit ASIC1a
